Our source for the EC50 values is ChEMBL document CHEMBL4609985, “Superior inhibition of influenza virus hemagglutinin-mediated fusion by indole-substituted spirothiazolidinones” (Bioorg Med Chem, 2020).

A short description of assay [1]: Inhibition of Influenza A virus H3N2 A/X-31 hemagglutinin 3 D1122N expressed in HeLa cells assessed as polykaryon formation preincubated for 15 mins and further incubated for 15 mins with acidic buffer containing compounds at pH 5.6 by giemsa staining based microscopic analysis. Type of assay: cell-based, Influenza A virus (A/X-31(H3N2)).
A short description of assay [2]: Inhibition of Influenza A virus H3N2 A/X-31 hemagglutinin 3 E572K mutant expressed in HeLa cells assessed as polykaryon formation preincubated for 15 mins and further incubated for 15 mins with acidic buffer containing compounds at pH 5.2 by giemsa staining based microscopic analysis. In kind it is cell-based, Influenza A virus (A/X-31(H3N2)).

A word on the EC50: it is the concentration at which the effect is half-maximal.

For the compound `CCC1CCC2(CC1)SC(C)C(=O)N2NC(=O)c1[nH]c2ccc(Cl)cc2c1C` (centres undefined), the EC50 was no less than 21 µM in assay [1] and greater than 25 µM in assay [2].

Consider `Cc1c(C(=O)NN2C(=O)C(C)SC23CCC(C)CC3)[nH]c2ccc(Cl)cc12` (centres undefined), for which the EC50 in assay [1] is greater than 25 µM; in assay [2], no less than 13 µM.

Consider `CCOC(=O)c1c(CSc2ccccc2)n(C)c2cc(Br)c(O)c(CN(C)C)c12` [UMIFENOVIR], for which the EC50 in assay [1] and in assay [2] was greater than 200 µM in each case.

`Cc1c(C(=O)NN2C(=O)C(C)SC23CCCC(C)C3)[nH]c2ccc(Cl)cc12` (centres undefined): the 50% effective concentration (EC50) in assay [1] and in assay [2] was greater than 25 µM each time.

As to `CC(C)(C)c1cc(O)ccc1O` [E319], the EC50 in assay [1] is greater than 400 µM; in assay [2], 12 µM.

On to `Cc1nc2sccn2c1C(=O)NN1C(=O)C(C)SC12CCC(C)CC2` (centres undefined), for which the results for the concentration giving a half-maximal response (EC50) in assay [1] and in assay [2] were greater than 25 µM and 9 µM, respectively.

Consider `Cc1c(C(=O)NN2C(=O)C(C)SC23CCCCC3)[nH]c2ccc(Cl)cc12` (centres undefined), for which the concentration giving a half-maximal response (EC50) in assay [1] and in assay [2] was greater than 25 µM in each case.
